Test results reported in patent US20220162191A1, “SMALL MOLECULE MODULATORS OF IL-17” (LEO PHARMA A/S, priority 2019, published 2022).

What follows are compounds tested against T1, human IL-17AA (Homo sapiens, UniProt Q16552) (assay: IL-8 release assay in human epithelial keratinocytes adult (HEKa)). Details: 3 ng/ml human IL-17AA + 10 ng/ml human TNFalpha, 68-72 h, IL-8 by HTRF, read-out: Rel EC50 L-8 release assay.
T1 construct: host or cells: HEK (human embryonic kidney) cells
T1 sequence (Q16552 24-155) 1: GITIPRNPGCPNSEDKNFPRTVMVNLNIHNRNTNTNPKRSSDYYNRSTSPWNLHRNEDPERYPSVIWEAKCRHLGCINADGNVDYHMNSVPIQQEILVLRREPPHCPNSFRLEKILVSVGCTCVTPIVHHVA
T1 sequence (Q16552 24-155) 2: T1 sequence (Q16552 24-155) 1
Assay type: cell-based
In short: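 IL-8 secretion, quantified by HTRF (665/620 nm) as percent of controls, served as the readout after 68–72 h culture of HEKa cells with compound plus IL-17AA (3 ng/ml final) and TNF-alpha (10 ng/ml final). Four-parameter logistic curves gave relative IC50 and Emax.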

SMILES | EC50
CC(C)n1cc(-c2ccc(Cl)c(C[C@H](NC(=O)OC(C)(C)C)C(=O)Nc3ccc(-c4nncn4C)cc3)c2)ccc1=O [Example 86, tert-butyl N-[(1S)-1-[[2-chloro-5-(1-isopropyl-6-oxo-3-pyridyl)phenyl]methyl]-2-[4-(4-methyl-1,2,4-triazol-3-yl)anilino]-2-oxo-ethyl]carbamate] | > 1000 nM
CC(C)n1cc(-c2ccc(Cl)c(C[C@H](NC(=O)O[C@H](C)C(F)(F)F)C(=O)Nc3ccc(-c4nncn4C)cc3)c2)ccc1=O [Example 286, [(1R)-2,2,2-trifluoro-1-methyl-ethyl] N-[(1S)-1-[[2-chloro-5-(1-isopropyl-6-oxo-3-pyridyl)phenyl]methyl]-2-[4-(4-methyl-1,2,4-triazol-3-yl)anilino]-2-oxo-ethyl]carbamate] | > 1000 nM
Cn1cncc1-c1ccc(NC(=O)C(Cc2cc(-c3ccnc(OCC4CC4)c3)ccc2Cl)NC(=O)c2ccnn2C)cc1 (centres unmarked) [Example 166, N-[1-[[2-chloro-5-[2-(cyclopropylmethoxy)-4-pyridyl]phenyl]methyl]-2-[4-(3-methylimidazol-4-yl)anilino]-2-oxo-ethyl]-2-methyl-pyrazole-3-carboxamide] | 100 to 1000 nM
Cc1n[nH]c(C)c1-c1ccc(NC(=O)[C@H](Cc2cc(-c3cccc(CN4C[C@H]5C[C@@H]4CN5)c3)ccc2Cl)NC(=O)C2(F)CC2)cc1 [Example 310, N-[(1S)-1-[[2-chloro-5-[3-[[(1R,4R)-2,5-diazabicyclo[2.2.1]heptan-2-yl]methyl]phenyl]phenyl]methyl]-2-[4-(3,5-dimethyl-1H-pyrazol-4-yl)anilino]-2-oxo-ethyl]-1-fluoro-cyclopropanecarboxamide] | 100 to 1000 nM
CCCC(=O)N[C@@H](Cc1cc(-c2ccc(=O)n(C(C)C)c2)ccc1Cl)C(=O)Nc1ccc(-c2c(C)cnn2C)cc1 [Example 330, N-[(1S)-1-[[2-chloro-5-(1-isopropyl-6-oxo-3-pyridyl)phenyl]methyl]-2-[4-(2,4-dimethylpyrazol-3-yl)anilino]-2-oxo-ethyl]butanamide] | 100 to 1000 nM
Cc1nocc1C(=O)N[C@@H](Cc1cc(-c2ccnc(C(O)C(C)(C)C)c2)ccc1Cl)C(=O)Nc1ccc(-c2nncn2C)cc1 (stereo partly drawn) [Example 81, N-[(1S)-1-[[2-chloro-5-[2-(1-hydroxy-2,2-dimethyl-propyl)-4-pyridyl]phenyl]methyl]-2-[4-(4-methyl-1,2,4-triazol-3-yl)anilino]-2-oxo-ethyl]-3-methyl-isoxazole-4-carboxamide] | 100 to 1000 nM
CC(C)n1nccc1C(=O)N[C@@H](Cc1cc(-c2ccc(=O)n(C(C)C)c2)ccc1Cl)C(=O)Nc1ccc(-c2nncn2C)cc1 [Example 91, N-[(1S)-1-[[2-chloro-5-(1-isopropyl-6-oxo-3-pyridyl)phenyl]methyl]-2-[4-(4-methyl-1,2,4-triazol-3-yl)anilino]-2-oxo-ethyl]-2-isopropyl-pyrazole-3-carboxamide] | 100 to 1000 nM
Cc1[nH]nnc1-c1ccc(NC(=O)C(Cc2cc(-c3ccc(=O)n(C(C)C)c3)ccc2Cl)NC(=O)c2ccnn2C)cc1 (centres unmarked) [Example 98, N-[1-[[2-chloro-5-(1-isopropyl-6-oxo-3-pyridyl)phenyl]methyl]-2-[4-(5-methyl-1H-triazol-4-yl)anilino]-2-oxo-ethyl]-2-methyl-pyrazole-3-carboxamide] | 100 to 1000 nM
Cc1cc(-c2ccc(Cl)c(CC(NC(=O)c3ccnn3C)C(=O)Nc3ccc(-c4nncn4C)cc3)c2)cc(C)c1C#N (centres unmarked) [Example 199, N-[1-[[2-chloro-5-(4-cyano-3,5-dimethyl-phenyl)phenyl]methyl]-2-[4-(4-methyl-1,2,4-triazol-3-yl)anilino]-2-oxo-ethyl]-2-methyl-pyrazole-3-carboxamide] | 100 to 1000 nM
CC(C)n1cc(-c2ccc(Cl)c(C[C@H](NC(=O)c3ccnn3C)C(=O)Nc3ccc(-c4cncn4C)c(F)c3)c2)ccc1=O [Example 135, N-[(1S)-1-[[2-chloro-5-(1-isopropyl-6-oxo-3-pyridyl)phenyl]methyl]-2-[3-fluoro-4-(3-methylimidazol-4-yl)anilino]-2-oxo-ethyl]-2-methyl-pyrazole-3-carboxamide] | 100 to 1000 nM
Cc1nocc1C(=O)NC(Cc1cc(-c2ccc(=O)n(C(C)C)c2)ccc1Cl)C(=O)Nc1ccc(-c2ccnn2C)c(Cl)c1 (centres unmarked) [Example 102, N-[1-[[2-chloro-5-(1-isopropyl-6-oxo-3-pyridyl)phenyl]methyl]-2-[3-chloro-4-(2-methylpyrazol-3-yl)anilino]-2-oxo-ethyl]-3-methyl-isoxazole-4-carboxamide] | 100 to 1000 nM
Cc1cnn(C)c1-c1ccc(NC(=O)[C@H](Cc2cc(-c3ccc(=O)n(C(C)C)c3)ccc2Cl)NC(=O)C2(C)CC2)cc1 [Example 334, N-[(1S)-1-[[2-chloro-5-(1-isopropyl-6-oxo-3-pyridyl)phenyl]methyl]-2-[4-(2,4-dimethylpyrazol-3-yl)anilino]-2-oxo-ethyl]-1-methyl-cyclopropanecarboxamide] | 100 to 1000 nM
Cc1n[nH]cc1-c1ccc(NC(=O)[C@H](Cc2cc(-c3ccc(=O)n(C(C)C)c3)ccc2Cl)NC(=O)C2(F)CC2)cc1 [Example 136, N-[(1S)-1-[[2-chloro-5-(1-isopropyl-6-oxo-3-pyridyl)phenyl]methyl]-2-[4-(3-methyl-1H-pyrazol-4-yl)anilino]-2-oxo-ethyl]-1-fluoro-cyclopropanecarboxamide] | 100 to 1000 nM
Cc1ncn(C)c1-c1ccc(NC(=O)[C@@H](NC(=O)c2ccnn2C)[C@@H]2CCCc3ccc(-c4ccc5c(c4)CNC5)cc32)cc1 [Example 42, N-[(1S)-2-[4-(3,5-dimethylimidazol-4-yl)anilino]-1-[(1R)-7-isoindolin-5-yltetralin-1-yl]-2-oxo-ethyl]-2-methyl-pyrazole-3-carboxamide] | 100 to 1000 nM
Cn1cncc1-c1ccc(NC(=O)C(Cc2cc(-c3ccnc(N4CCC[C@@H]4CO)c3)ccc2Cl)NC(=O)c2ccnn2C)cc1 (stereo partly drawn) [Example 189, N-[1-[[2-chloro-5-[2-[(2R)-2-(hydroxymethyl)pyrrolidin-1-yl]-4-pyridyl]phenyl]methyl]-2-[4-(3-methylimidazol-4-yl)anilino]-2-oxo-ethyl]-2-methyl-pyrazole-3-carboxamide] | 100 to 1000 nM

The remaining lines, values ahead:

EC50 | SMILES
< 100 nM | Cc1n[nH]c(C)c1-c1ccc(NC(=O)[C@@H](NC(=O)C2(F)CC2)[C@@H]2CCc3ccc(-c4cnn(C(C)(C)CO)c4)cc32)cc1 [Example 12, N-[(1S)-2-[4-(3,5-dimethyl-1H-pyrazol-4-yl)anilino]-1-[(1R)-6-[1-(2-hydroxy-1,1-dimethyl-ethyl)pyrazol-4-yl]indan-1-yl]-2-oxo-ethyl]-1-fluoro-cyclopropanecarboxamide]
100 to 1000 nM | Cc1cnn(C)c1-c1ccc(NC(=O)[C@@H](NC(=O)C2(F)CC2)[C@@H]2CCc3ccc(-c4cc(N5C[C@@H]6C[C@H]5CO6)ncn4)cc32)cc1 [Example 365, N-[(1S)-2-[4-(2,4-dimethylpyrazol-3-yl)anilino]-1-[(1R)-6-[6-[(1S,4S)-2-oxa-5-azabicyclo[2.2.1]heptan-5-yl]pyrimidin-4-yl]indan-1-yl]-2-oxo-ethyl]-1-fluoro-cyclopropanecarboxamide]
100 to 1000 nM | Cc1[nH]ncc1-c1ccc(NC(=O)C(Cc2cc(-c3ccc(=O)n(C(C)C)c3)ccc2Cl)NC(=O)OC(C)(C)C)cc1 (centres unmarked) [Example 90, tert-butyl N-[1-[[2-chloro-5-(1-isopropyl-6-oxo-3-pyridyl)phenyl]methyl]-2-[4-(5-methyl-1H-pyrazol-4-yl)anilino]-2-oxo-ethyl]carbamate]
< 100 nM | Cc1n[nH]c(C)c1-c1ccc(NC(=O)[C@H](Cc2cc(-c3ccc(=O)n(C(C)C)c3)ccc2Cl)NC(=O)c2ccnn2C)cc1O [Example 177, N-[(1S)-1-[[2-chloro-5-(1-isopropyl-6-oxo-3-pyridyl)phenyl]methyl]-2-[4-(3,5-dimethyl-1H-pyrazol-4-yl)-3-hydroxy-anilino]-2-oxo-ethyl]-2-methyl-pyrazole-3-carboxamide]
< 100 nM | Cc1n[nH]c(C)c1-c1ccc(NC(=O)[C@H](Cc2cc(-c3cccc(CN(C)C)c3)ccc2Cl)NC(=O)c2ccnn2C)cc1 [Example 60, N-[(1S)-1-[[2-chloro-5-[3-[(dimethylamino)methyl]phenyl]phenyl]methyl]-2-[4-(3,5-dimethyl-1H-pyrazol-4-yl)anilino]-2-oxo-ethyl]-2-methyl-pyrazole-3-carboxamide]
< 100 nM | Cc1n[nH]c(C)c1-c1ccc(NC(=O)[C@@H](NC(=O)c2ccnn2C)[C@@H]2CCCc3ccc(-c4ccnc(N5C[C@H]6C[C@@H]5CO6)c4)cc32)cc1 [Example 394, N-[(1S)-2-[4-(3,5-dimethyl-1H-pyrazol-4-yl)anilino]-1-[(1R)-7-[2-[(1R,4R)-2-oxa-5-azabicyclo[2.2.1]heptan-5-yl]-4-pyridyl]tetralin-1-yl]-2-oxo-ethyl]-2-methyl-pyrazole-3-carboxamide]
< 100 nM | Cc1cnn(C)c1-c1ccc(NC(=O)[C@@H](NC(=O)C2(F)CC2)[C@@H]2CCc3ccc(-c4ccnc(N5C[C@@H]6C[C@H]5CO6)c4)cc32)cc1O [Example 369, N-[(1S)-2-[4-(2,4-dimethylpyrazol-3-yl)-3-hydroxy-anilino]-1-[(1R)-6-[2-[(1S,4S)-2-oxa-5-azabicyclo[2.2.1]heptan-5-yl]-4-pyridyl]indan-1-yl]-2-oxo-ethyl]-1-fluoro-cyclopropanecarboxamide]
< 100 nM | Cc1n[nH]c(C)c1-c1ccc(NC(=O)[C@@H](NC(=O)C2(F)CC2)[C@H](C)c2cccc(-c3ccnc(N4C[C@@H]5C[C@H]4CO5)c3)c2)cc1 [Example 341, N-[(1S,2R)-1-[[4-(3,5-dimethyl-1H-pyrazol-4-yl)phenyl]carbamoyl]-2-[3-[2-[(1S,4S)-2-oxa-5-azabicyclo[2.2.1]heptan-5-yl]-4-pyridyl]phenyl]propyl]-1-fluoro-cyclopropanecarboxamide]
